Data set [1] deals with cholesterol in serum. Briefly: Effect of reducing lipid level in blood: percent inhibition of cholesterol in serum of hamsters fed 1% cholesterol and 0.5% cholic acid diet. Particulars: Mesocricetus auratus, po, 120 h, orally once a day for 5 days, relative to control group. In kind it is in vivo, Male golden Syrian hamsters. The procedure:
The effect of reducing a lipid level in blood by the action of the compounds according to the present invention was determined as follows:
Male golden Syrian hamsters weighing from 80 to 100 g were randomly divided into groups. The hamsters were first fed standard laboratory diets (solid feed MF-1 for mouse/rat/hamster, manufactured by Oriental Yeast Industries, KK) for 3 days. Then, they were fed the experimental diet containing 1% cholesterol and 0.5% cholic acid (manufactured by Oriental Yeast Industries, KK), ad libitum. At the same time, the compounds of the invention formulated in a shown dose (25 mg or 50 mg/10 ml water/kg) were administrated to the animals orally once a day at a determined time for 5 days. Water was administrated orally to the hamsters of control group in an amount of 10 ml per 1 kg of body weight. After five days of administrating the compounds, they were anesthetized with Pentobarbital Na (Nembutal injection, manufactured by Dainabbot) and three hours after the final administration of the test compound, a blood samples (2-3 ml) was taken from abdominal cava. The serum was separated by centrifuging.
The cholesterol level in the serum was determined by using a blood cholesterol measuring kit, Determina-TC5 manufactured by Kyowa Medix Co. The results are represented by percent inhibition (%) of cholesterol level in serum relative to that of the control group, and shown in the following Table 4, each compound number corresponding to that in the above Table 3.

Data set [2] has as its target ACAT (acyl coenzyme cholesterol acyltransferase). In words: ACAT inhibitory action in hamster microsomes (cholesteryl-[14C] oleate formation). In kind it is biochemical. Particulars: radio-labelled oleoyl coenzyme A. The procedure: The ACAT inhibitory action of the compounds according to the present invention was measured as follows:
ACAT activity in the hamster microsomes was determined by measuring the rate of radio-active cholesteryl-[^14 C] oleate formation from cholesterol and radio-labelled oleoyl coenzyme A (^14 C) with or without test compound.
Calculations of IC50 value were made using data of the percent inhibition at each compound concentration. The results are shown in the following Table 5, each compound number corresponding to that in Table 3.

The nature of a further data set: Acute toxicity test. As to conditions: rat, in vivo, po; P.O., suspended in 1% tragacanth solution, SD male and female rats, seven day observation. The text has this:
A compound according to the present invention suspended in a 1% tragacanth solution was administrated orally to SD male and female rats. Then, the number of fatal rats was counted during seven day observation. The LD50 value is shown in the following Table 6, the compound number corresponding to that in the above Table 3.

Data set [3] relates to cholesterol in serum. Briefly: Effect of reducing lipid level in blood: percent inhibition of cholesterol in serum of hamsters fed 1% cholesterol and 0.5% cholic acid diet. Type of data set: in vivo, Male golden Syrian hamsters. Particulars: Mesocricetus auratus, po, 120 h, orally once a day for 5 days, relative to control group. The source holds these as a separate data set.

Each structure is given as a SMILES string. Where only a bound is given, the exact number is not on record here.

Turning to `CCCCCCCc1ccc(NC(=O)Nc2c(C(C)C)cccc2C(C)C)cc1` [compound 18], the inhibition in vivo (in general, the drop in the measured response relative to a control, in per cent) at 25 mg/kg in the data set on cholesterol in serum [1] worked out at 49%. Further, the half-maximal inhibitory concentration (IC50) (commonly the concentration at which inhibition is half-maximal) in data set [2] came out at 6 nM.
`CCCCCCCCc1ccc(NC(=O)Nc2c(CC)cccc2CC)cc1` [compound 7]: testing at 25 mg/kg with cholesterol in serum [1] gave an inhibition in vivo of 48%.
As to `CCCCCCCCc1ccc(NC(=O)Nc2c(Cl)ccc(C)c2Cl)cc1` [compound 11], at 25 mg/kg the inhibition in vivo in the data set on cholesterol in serum [1] was 47%.
In turn, `CCCCCCCCc1ccc(NC(=O)Nc2c(Cl)cccc2Cl)cc1` [Compound No. 2, 1-(4-octylphenyl)-3-(2,6-dichlorophenyl)urea] gave an inhibition in vivo at 25 mg/kg in the data set with cholesterol in serum [1] of 49%.
`CCCCCCCCc1ccc(NC(=O)Nc2c(C)cccc2C)cc1` [compound 5] returned an inhibition in vivo at 25 mg/kg with cholesterol in serum [1] of 44%.
Turning to `CCCCCCCCc1ccccc1NC(=O)Nc1c(C(C)C)cccc1C(C)C` [compound 13], in the data set on cholesterol in serum [1], 25 mg/kg produced 54% inhibition in vivo.
The same measure, in the same setting: to `CC(C)c1cccc(C(C)C)c1NC(=O)Nc1ccc(C(C)(C)C)cc1` [Compound No. 26, reference compound] belongs 19%; to `CCCCCCCCc1ccc(NC(=O)Nc2c(Br)cccc2Br)cc1` [compound 4], 55%.
Consider `CCCCCCc1ccc(NC(=O)Nc2c(C(C)C)cccc2C(C)C)cc1` [compound 17], for which 25 mg/kg produced 60% inhibition in vivo in the data set on cholesterol in serum [1]. Further, the IC50 in data set [2] stood at 11 nM.
In turn, `CCCCCCCCCc1ccc(NC(=O)Nc2c(C(C)C)cccc2C(C)C)cc1` [Compound No. 19, 1-(4-nonylphenyl)-3-(2,6-diisopropylphenyl)urea] came in with an inhibition in vivo at 25 mg/kg with cholesterol in serum [1] of 64%. In data set [2], this molecule registered an IC50 of 10 nM.
As for `CCCCCCCCc1ccc(NC(=O)Nc2c(C(C)C)cccc2C(C)C)cc1` [Compound No. 8], 25 mg/kg produced 55% inhibition in vivo in the data set with cholesterol in serum [1]. In data set [2], the IC50 is 4 nM. In addition, the 50% lethal dose (LD50) (usually the dose at which mortality reaches 50%) at 168 h in the data set “Acute toxicity test” is more than 2000 mg/kg. Besides, the inhibition in vivo at 5 mg/kg in the data set on cholesterol in serum [3] was found to be 35%.
Molecule `CCCCCCCCCCc1ccc(NC(=O)Nc2c(C(C)C)cccc2C(C)C)cc1` [compound 20] had an inhibition in vivo at 25 mg/kg in the data set with cholesterol in serum [1] of 59%. This molecule also returned an IC50 in data set [2] of 12 nM.
In the data set on cholesterol in serum [1], `CCCCCCCCc1ccc(NC(=O)Nc2c(OC)cccc2OC)cc1` [compound 12] registered an inhibition in vivo at 25 mg/kg of 54%.
For the molecule `CCCCCc1ccc(NC(=O)Nc2c(C(C)C)cccc2C(C)C)cc1` [compound 16], the inhibition in vivo at 25 mg/kg in the data set on cholesterol in serum [1] was determined as 34%.
